What all share (format): functional
In assay [1] the test system is Lichtheimia corymbifera. Briefly: Antimicrobial activity against Absidia corymbifera conidia after 24 hrs by AFST-EUCAST method.
In assay [2] the test system is Rhizopus. Briefly: Antimicrobial activity against Rhizopus spp. conidia after 24 hrs by AFST-EUCAST method.
Assay [3] concerns Rhizomucor. Briefly: Antimicrobial activity against Rhizomucor spp. conidia after 24 hrs by AFST-EUCAST method.
Assay [4] deals with Mucor. Put plainly: Antimicrobial activity against Mucor spp. conidia after 24 hrs by AFST-EUCAST method.
For assay [5], the system named is Syncephalastrum racemosum. Briefly: Antimicrobial activity against Syncephalastrum racemosum conidia after 24 hrs by AFST-EUCAST method.
Assay [6] relates to Cunninghamella bertholletiae. Briefly: Antimicrobial activity against Cunninghamella bertholletiae conidia after 24 hrs by AFST-EUCAST method.
The subject of assay [7] is Lichtheimia corymbifera. Put plainly: Antimicrobial activity against Absidia corymbifera hyphae after 24 hrs by AFST-EUCAST method.
For assay [8], the system named is Rhizopus. Briefly: Antimicrobial activity against Rhizopus spp. hyphae after 24 hrs by AFST-EUCAST method.
In assay [9] the test system is Rhizomucor. Briefly: Antimicrobial activity against Rhizomucor spp. hyphae after 24 hrs by AFST-EUCAST method.
Assay [10] has as its system Mucor. Briefly: Antimicrobial activity against Mucor spp. hyphae after 24 hrs by AFST-EUCAST method.
The subject of assay [11] is Syncephalastrum racemosum. Briefly: Antimicrobial activity against Syncephalastrum racemosum hyphae after 24 hrs by AFST-EUCAST method.
Assay [12] deals with Cunninghamella bertholletiae. Put plainly: Antimicrobial activity against Cunninghamella bertholletiae hyphae after 24 hrs by AFST-EUCAST method.
Assay [13] concerns Rhizomucor. Briefly: Antimicrobial activity against Rhizomucor spp. conidia after 24 hrs by XTT method in presence of amphotericin B. On the technique in general: Tetrazolium assays rely on reduction of a dye to a coloured formazan, in cell work by metabolically active cells.
For assay [14], the system named is Cunninghamella bertholletiae. Briefly: Antimicrobial activity against Cunninghamella bertholletiae conidia after 24 hrs by XTT method in presence of amphotericin B.
Assay [15] deals with Mucor. Briefly: Antimicrobial activity against Mucor spp. conidia after 24 hrs by XTT method in presence of amphotericin B.
Assay [16] relates to Rhizopus arrhizus. Briefly: Antimicrobial activity against Rhizopus oryzae conidia after 24 hrs by XTT method in presence of amphotericin B.
The nature of assay [17]: Antimicrobial activity against Rhizopus microsporus conidia after 24 hrs by XTT method in presence of amphotericin B.
Assay [18] deals with Lichtheimia corymbifera. Put plainly: Antimicrobial activity against Absidia corymbifera conidia after 24 hrs by XTT method in presence of amphotericin B.
Assay [19] relates to Syncephalastrum racemosum. Put plainly: Antimicrobial activity against Syncephalastrum racemosum conidia after 24 hrs by XTT method in presence of amphotericin B.
Assay [20] deals with Rhizomucor. Put plainly: Antimicrobial activity against Rhizomucor spp. hyphae after 24 hrs by XTT method in presence of amphotericin B.
In assay [21] the test system is Cunninghamella bertholletiae. Put plainly: Antimicrobial activity against Cunninghamella bertholletiae hyphae after 24 hrs by XTT method in presence of amphotericin B.
Assay [22] concerns Mucor. Put plainly: Antimicrobial activity against Mucor spp. hyphae after 24 hrs by XTT method in presence of amphotericin B.
The subject of assay [23] is Rhizopus arrhizus. Briefly: Antimicrobial activity against Rhizopus oryzae hyphae after 24 hrs by XTT method in presence of amphotericin B.
Assay [24] can be described thus: Antimicrobial activity against Rhizopus microsporus hyphae after 24 hrs by XTT method in presence of amphotericin B.
The test system of assay [25] is Lichtheimia corymbifera. Put plainly: Antimicrobial activity against Absidia corymbifera hyphae after 24 hrs by XTT method in presence of amphotericin B.
Assay [26] concerns Syncephalastrum racemosum. Briefly: Antimicrobial activity against Syncephalastrum racemosum hyphae after 24 hrs by XTT method in presence of amphotericin B.

Converted amounts (≈) assume the structure as drawn.

For orientation: MIC means the lowest concentration found to suppress growth. For the compound `C[C@@H]1[C@H](O)[C@@H](C)/C=C/C=C/C=C/C=C/C=C/C=C/C=C/[C@H](O[C@@H]2O[C@H](C)[C@@H](O)[C@H](N)[C@@H]2O)C[C@@H]2O[C@](O)(C[C@@H](O)C[C@@H](O)[C@H](O)CC[C@@H](O)C[C@@H](O)CC(=O)O[C@H]1C)C[C@H](O)[C@H]2C(=O)O` [AMPHOTERICIN B], the MIC (against Lichtheimia corymbifera [1]; against Rhizopus [2]; against Rhizomucor [3]; against Mucor [4]; in assay [5]; in assay [6]) was 0.5 µg/mL (≈ 0.541 µM) each time. Besides, the MIC (with Lichtheimia corymbifera [7]; in the assay with Rhizopus [8]; in the assay on Rhizomucor [9]; in the assay on Mucor [10]; in assay [11]; in [12]) was 1 µg/mL (≈ 1.08 µM) each time.

For `CC[C@@H]([C@H](C)O)n1ncn(-c2ccc(N3CCN(c4ccc(OC[C@@H]5CO[C@@](Cn6cncn6)(c6ccc(F)cc6F)C5)cc4)CC3)cc2)c1=O` [POSACONAZOLE], the “fractional inhibitory concentration index (FICI)” value with Rhizomucor [13] is on record as 0.5; in assay [14], 1.1; in the assay with Mucor [15], 1.25; with Rhizopus arrhizus [16] it was 0.75; in [17], 0.37; in the assay with Lichtheimia corymbifera [18], 0.75. The “fractional inhibitory concentration index (FICI)” value was found to be 1 in [19]; 0.75 in the assay on Rhizomucor [20]; 0.5 in assay [21]; 0.5 in the assay on Mucor [22]; 1 in the assay with Rhizopus arrhizus [23]; 0.37 in [24]. The “fractional inhibitory concentration index (FICI)” value in the assay on Lichtheimia corymbifera [25] was found to be 0.37; in assay [26], 0.6. Also, the MIC (with Lichtheimia corymbifera [1]; in the assay on Rhizopus [2]; with Rhizomucor [3]; in the assay with Mucor [4]; in assay [5]; in assay [6]) was 0.25 µg/mL (≈ 0.357 µM) in each case. Further, the MIC (with Lichtheimia corymbifera [7]; in the assay on Rhizopus [8]; against Rhizomucor [9]; in the assay with Mucor [10]; in [11]; in assay [12]) was 1 µg/mL (≈ 1.43 µM) each time.

(Values after ChEMBL document CHEMBL1275450, “Posaconazole enhances the activity of amphotericin B against hyphae of zygomycetes in vitro” (2008).)
